Reference: patent publication US20250101042A1, “KRAS G12D MODULATING COMPOUNDS” (Gilead Sciences, Inc., priority 2023, published 2025)

Columns and labels:
GDP-loaded KRAS G12D = GDP-loaded KRAS G12D (Homo sapiens, UniProt P01116, G12D); experiment: KRAS G12D (GDP) Biochemical Assay (TR-FRET probe displacement); assay type: binding; conditions: 0.5 nM enzyme, 2 hours at room temperature
Experimental: Example A. KRAS G12D (GDP) Biochemical Assay
Compounds were tested for binding to GDP-loaded KRAS G12D in a 384-well assay format using a TR-FRET probe displacement assay in buffer consisting of 50 mM Hepes (pH 7.4), 150 mM NaCl, 5 mM MgCl2 and 0.005% Tween-20. […] Compounds were serially diluted (1:3) in DMSO. The LabCyte ECHO Acoustic dispenser system was used to pre-spot the assay plates (384-well Non-Binding Surface plates, Corning, Catalog #3824) with 50 nL of compound. The compounds were pre-incubated with 5 μL of 2× final enzyme concentration for 30 minutes before adding 5 μL of 2× final concentration of Eu-streptavidin and TR-FRET probe (10 μL final reaction volume). The plates were incubated at room temperature for 2 hours before measuring TR-FRET ratio on the Envision plate reader. IC50 values were defined as the compound concentration that causes a 50% decrease in TR-FRET ratio and were calculated using a sigmoidal dose-response model to generate curve fits.

GP2D (KRAS G12D) cells = experiment: 2D Cell Viability Assay (CellTiter-Glo); assay type: cell-based; conditions: GP2d, 96 h, 4 days, CellTiter-Glo luminescence
Experimental: Example B. 2D Cell Viability Assay
Compounds were tested in a 384-well format for their ability to inhibit the viability of GP2D (KRAS G12D) cells in 2D assays. Compounds were serially diluted (1:3) in DMSO. The LabCyte ECHO Acoustic dispenser system was used to pre-spot assay plates with 200 nL of test molecule per well. 1000 cells/well (40 μL volume per well) in RPMI medium with 10% FBS, and Penicillin-Streptomycin-Glutamine were plated in pre-spotted 384-well plates (Greiner, Catalog #781076) on the BioTEK EL406 liquid dispenser with a 5 μL dispensing cassette (BioTek 7170011). The plates were incubated at 37° C., 5% CO2 for 4 days before addition of CellTiter-Glo (CTG) reagent and measurement of luminescence signal. EC50 values were defined as the compound concentration that causes a 50% decrease in luminescence signal and were calculated using a sigmoidal dose-response model to generate curve fits.

Sequence of GDP-loaded KRAS G12D (P01116 1-188 isoform P01116-2 G12D): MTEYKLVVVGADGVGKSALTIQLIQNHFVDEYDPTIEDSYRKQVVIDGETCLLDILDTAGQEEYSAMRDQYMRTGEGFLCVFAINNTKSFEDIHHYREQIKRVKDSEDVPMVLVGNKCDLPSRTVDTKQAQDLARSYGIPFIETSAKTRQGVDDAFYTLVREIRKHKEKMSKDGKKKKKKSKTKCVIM

SMILES | IC50 (GDP-loaded KRAS G12D) [nM] | EC50 (GP2D (KRAS G12D) cells) [nM]
Cc1cc(N)nc(-c2nc3c4c(nc(OC[C@@]56CCCN5C[C@H](F)C6)nc4c2F)N2C[C@H]4CC[C@H](N4)[C@H]2CC3)c1C(F)(F)F [Example 1, 6-((5aR,6S,9R)-1-fluoro-12-(((2R,7aS)-2-fluorotetrahydro-1H-pyrrolizin-7a(5H)-yl)methoxy)-4,5,5a,6,7,8,9,10-octahydro-3,10a,11,13,14-pentaaza-6,9-methanonaphtho[1,8-ab]heptalen-2-yl)-4-methyl-5-(trifluoromethyl)pyridin-2-amine] | 0.84 | 16
Cc1cc(N)nc(-c2nc3c4c(nc(OC[C@@]56CCCN5C[C@H](F)C6)nc4c2F)N2C[C@H]4CC[C@H](N4)[C@@H]2CC3)c1C(F)(F)F [Example 4, 6-((5aS,6S,9R)-1-fluoro-12-(((2R,7aS)-2-fluorotetrahydro-1H-pyrrolizin-7a(5H)-yl)methoxy)-4,5,5a,6,7,8,9,10-octahydro-3,10a,11,13,14-pentaaza-6,9-methanonaphtho[1,8-ab]heptalen-2-yl)-4-methyl-5-(trifluoromethyl)pyridin-2-amine] | 62 | > 100
Cc1cc(N)nc(-c2nc3c4c(nc(OC[C@@]56CCCN5C[C@H](F)C6)nc4c2F)N2C[C@H]4CC[C@H](N4)[C@H]2CCC3)c1C(F)(F)F [Example 7, 6-((6aR,7S,10R)-1-fluoro-13-(((2R,7aS)-2-fluorotetrahydro-1H-pyrrolizin-7a(5H)-yl)methoxy)-5,6,6a,7,8,9,10,11-octahydro-4H-3,11a,12,14,15-pentaaza-7,10-methanocyclohepta[4,5]cycloocta[1,2,3-de]naphthalen-2-yl)-4-methyl-5-(trifluoromethyl)pyridin-2-amine] | 0.7 | 11
Cc1cc(N)[n+]([O-])c(-c2nc3c4c(nc(OC[C@@]56CCCN5C[C@H](F)C6)nc4c2F)N2C[C@H]4CC[C@H](N4)[C@H]2CCC3)c1C(F)(F)F [Example 8, 6-amino-2-((6aR,7S,10R)-1-fluoro-13-(((2R,7aS)-2-fluorotetrahydro-1H-pyrrolizin-7a(5H)-yl)methoxy)-5,6,6a,7,8,9,10,11-octahydro-4H-3,11a,12,14,15-pentaaza-7,10-methanocyclohepta[4,5]cycloocta[1,2,3-de]naphthalen-2-yl)-4-methyl-3-(trifluoromethyl)pyridine 1-oxide] | > 100 | > 100
Cc1cc(N)nc(-c2cc3c4c(nc(OC[C@@]56CCCN5C[C@H](F)C6)nc4c2F)N2C[C@H]4CC[C@H](N4)[C@H]2CC3)c1C(F)(F)F [Example 9, 6-((1S,4R,14aR)-10-fluoro-8-(((2R,7aS)-2-fluorotetrahydro-1H-pyrrolizin-7a(5H)-yl)methoxy)-1,2,3,4,5,13,14,14a-octahydro-1,4-epiminoazepino[1′,2′:1,7]azepino[2,3,4-de]quinazolin-11-yl)-4-methyl-5-(trifluoromethyl)pyridin-2-amine] | 2.5 | 37
Cc1cc(N)nc(-c2c(C)c3c4c(nc(OC[C@@]56CCCN5C[C@H](F)C6)nc4c2F)N2C[C@H]4CC[C@H](N4)[C@H]2CC3)c1C(F)(F)F [Example 10, 6-((1S,4R,14aR)-10-fluoro-8-(((2R,7aS)-2-fluorotetrahydro-1H-pyrrolizin-7a(5H)-yl)methoxy)-12-methyl-1,2,3,4,5,13,14,14a-octahydro-1,4-epiminoazepino[1′,2′:1,7]azepino[2,3,4-de]quinazolin-11-yl)-4-methyl-5-(trifluoromethyl)pyridin-2-amine] | 0.29 | 10
Cc1c(F)c(N)nc(-c2nc3c4c(nc(OC[C@@]56CCCN5C[C@H](F)C6)nc4c2F)N2C[C@H]4CC[C@H](N4)[C@H]2CCC3)c1C(F)(F)F [Example 11, 3-fluoro-6-((6aR,7S,10R)-1-fluoro-13-(((2R,7aS)-2-fluorotetrahydro-1H-pyrrolizin-7a(5H)-yl)methoxy)-5,6,6a,7,8,9,10,11-octahydro-4H-3,11a,12,14,15-pentaaza-7,10-methanocyclohepta[4,5]cycloocta[1,2,3-de]naphthalen-2-yl)-4-methyl-5-(trifluoromethyl)pyridin-2-amine] | 12 | 34
N#Cc1c(N)sc2cccc(-c3nc4c5c(nc(OC[C@@]67CCCN6C[C@H](F)C7)nc5c3F)N3C[C@H]5CC[C@H](N5)[C@H]3CCC4)c12 [Example 12, 2-amino-4-((6aR,7S,10R)-1-fluoro-13-(((2R,7aS)-2-fluorotetrahydro-1H-pyrrolizin-7a(5H)-yl)methoxy)-5,6,6a,7,8,9,10,11-octahydro-4H-3,11a,12,14,15-pentaaza-7,10-methanocyclohepta[4,5]cycloocta[1,2,3-de]naphthalen-2-yl)benzo[b]thiophene-3-carbonitrile] | 0.17 | 3.5
C[C@H]1Cc2nc(-c3cccc4sc(N)c(C#N)c34)c(F)c3nc(OC[C@@]45CCCN4C[C@H](F)C5)nc(c23)N2C[C@H]3CC[C@H](N3)[C@H]12 [Example 13, 2-amino-4-((5S,5aS,6S,9R)-1-fluoro-12-(((2R,7aS)-2-fluorotetrahydro-1H-pyrrolizin-7a(5H)-yl)methoxy)-5-methyl-4,5,5a,6,7,8,9,10-octahydro-3,10a,11,13,14-pentaaza-6,9-methanonaphtho[1,8-ab]heptalen-2-yl)benzo[b]thiophene-3-carbonitrile] | 0.45 | 2
Cc1cc(N)nc(-c2c(Br)c3c4c(nc(OC[C@@]56CCCN5C[C@H](F)C6)nc4c2F)N2C[C@H]4CC[C@H](N4)[C@H]2CC3)c1C(F)(F)F [Example 14, 6-((1S,4R,14aR)-12-bromo-10-fluoro-8-(((2R,7aS)-2-fluorotetrahydro-1H-pyrrolizin-7a(5H)-yl)methoxy)-1,2,3,4,5,13,14,14a-octahydro-1,4-epiminoazepino[1′,2′:1,7]azepino[2,3,4-de]quinazolin-11-yl)-4-methyl-5-(trifluoromethyl)pyridin-2-amine] | 0.24 | 2.5
C=Cc1c(-c2nc(N)cc(C)c2C(F)(F)F)c(F)c2nc(OC[C@@]34CCCN3C[C@H](F)C4)nc3c2c1CC[C@@H]1[C@@H]2CC[C@H](CN31)N2 [Example 15, 6-((1S,4R,14aR)-10-fluoro-8-(((2R,7aS)-2-fluorotetrahydro-1H-pyrrolizin-7a(5H)-yl)methoxy)-12-vinyl-1,2,3,4,5,13,14,14a-octahydro-1,4-epiminoazepino[1′,2′:1,7]azepino[2,3,4-de]quinazolin-11-yl)-4-methyl-5-(trifluoromethyl)pyridin-2-amine] | 0.43 | 24
CCc1c(-c2nc(N)cc(C)c2C(F)(F)F)c(F)c2nc(OC[C@@]34CCCN3C[C@H](F)C4)nc3c2c1CC[C@@H]1[C@@H]2CC[C@H](CN31)N2 [Example 16, 6-((1S,4R,14aR)-12-ethyl-10-fluoro-8-(((2R,7aS)-2-fluorotetrahydro-1H-pyrrolizin-7a(5H)-yl)methoxy)-1,2,3,4,5,13,14,14a-octahydro-1,4-epiminoazepino[1′,2′:1,7]azepino[2,3,4-de]quinazolin-11-yl)-4-methyl-5-(trifluoromethyl)pyridin-2-amine] | 0.82 | 20
Cc1cc(N)nc(-c2nc3c4c(nc(OC[C@@]56CCCN5C[C@H](F)C6)nc4c2F)N2C[C@H]4CC[C@H](N4)[C@@H]2[C@@H](C)C3)c1C(F)(F)F [Example 17, 6-((5S,5aS,6S,9R)-1-fluoro-12-(((2R,7aS)-2-fluorotetrahydro-1H-pyrrolizin-7a(5H)-yl)methoxy)-5-methyl-4,5,5a,6,7,8,9,10-octahydro-3,10a,11,13,14-pentaaza-6,9-methanonaphtho[1,8-ab]heptalen-2-yl)-4-methyl-5-(trifluoromethyl)pyridin-2-amine] | 6.1 | 25
Cc1cc(N)nc(-c2nc3c4c(nc(OC[C@@]56CCCN5C[C@H](F)C6)nc4c2F)N2C[C@H]4CC[C@H](N4)[C@H]2C[C@H](C)C3)c1C(F)(F)F [Example 18, 6-((5S,6aR,7S,10R)-1-fluoro-13-(((2R,7aS)-2-fluorotetrahydro-1H-pyrrolizin-7a(5H)-yl)methoxy)-5-methyl-5,6,6a,7,8,9,10,11-octahydro-4H-3,11a,12,14,15-pentaaza-7,10-methanocyclohepta[4,5]cycloocta[1,2,3-de]naphthalen-2-yl)-4-methyl-5-(trifluoromethyl)pyridin-2-amine] | 83 | > 100
